The record followed here is US20230159445A1, “STAT INHIBITORY COMPOUNDS AND COMPOSITIONS” (JANPIX LIMITED, priority 2020, published 2023).

The subject of data set [1] is normal human fibroblast (NHF) cells. Nature of the data set: NHF Cell Cytotoxicity Assay (CellTiter-Blue, 72 h), off-target effects. Format: cell-based. To be noted: Homo sapiens, Fibroblast; pooled NHF cells. As to the method: In some embodiments, the off-target effects of the compounds are evaluated in healthy human cells, such as in a normal human fibroblast (NHF) cell cytotoxicity assay.
Cell viability was examined following treatment at various concentrations of inhibitor (0.097656-50 μM) using a cell Titer-Blue cell viability assay. 1×10^4 normal human fibroblast cells per well were plated in 96-well assay plates in culture medium. All cells are grown in DMEM, IMDM and RPMI-1640 were supplemented with 10% FBS. After 24 hours, test compounds and vehicle controls are added to appropriate wells so the final volume was 100 μl in each well. The cells are cultured for the desired test exposure period (72 hours) at 37° C. and 5% CO2. The assay plates are removed from 37° C. incubator and 20 μL/well of CellTiter-Blue® Reagent is added. The plates are incubated using standard cell culture conditions for 1-4 hours and the plates are shaken for 10 seconds and record fluorescence at 560/590nm. For each sample well, value is normalized between the DMSO control and the highest concentration in case of plateau, and converted into a percentage. In the absence of plateau, minimum lecture is obtained from a different sample within the same experiment. For each concentration, the four replicates are averaged and standard deviation calculated. Data is fitted to a log(inhibitor) vs response curve with variable slope model using Microsoft Excel, obtaining IC50 and Hill slope variables.
A person skilled in the art would appreciate that a higher IC50 value in this NHF assay can indicate lower off-target effects.

In another data set the test system is MV4-11 cells. Nature of the data set: MV4-11 Cell Cytotoxicity Assay (CellTiter-Blue, 72 h). Format: cell-based, human. To be noted: Homo sapiens, MV4-11; MV-4-11 cells. The gist of the method:
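Viability read-out: CellTiter-Blue, 1 h, fluorescence 560/590 nm. Preceded by 72 h exposure (37° C, 5% CO2) to twofold dilution series from 50 μM, triplicate, 0.5% DMSO vehicle, applied 24 h after plating.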
For orientation: Alamar Blue is a resazurin reagent that responds to reducing activity.

The next data set relates to glutathione (GSH). Nature of the data set: Reactivity Profiling with Glutathione (GSH), half-life by HPLC. To be noted: 5 mM glutathione (GSH) in IMDM with 10% FBS.

Take `CCc1cc(C(=O)O)ccc1N(Cc1cc(C2CC2)cc(C2CC2)c1)C(=O)CN(Cc1ccc(F)cc1Cl)S(=O)(=O)c1c(F)c(F)c(F)c(F)c1F` [Compound 1243, 4-(2-(N-(2-chloro-4-fluorobenzyl)-(2,3,4,5,6-pentafluorophenyl)sulfon-amido)-N-(3,5-dicyclopropylbenzyl)acetamido)-3-ethylbenzoic acid]: the IC50 – broadly, the midpoint of a concentration-inhibition curve – in data set [1] lay within 10000 to 20000 nM.
For the compound `O=C(O)c1ccc(N(Cc2cc(C3CC3)cc(C3CC3)c2)C(=O)CN(Cc2ccccc2F)S(=O)(=O)c2c(F)c(F)c(F)c(F)c2F)c(OC2CC2)c1` [Compound 1099, 3-cyclopropoxy-4-(N-(3,5-dicyclopropylbenzyl)-2-(N-(2-fluorobenzyl)-(2,3,4,5,6-pentafluoro-phenyl)sulfonamido)acetamido)benzoic acid], the IC50 with MV4-11 cells was in the range of 0.01 to 316 nM. Besides, the half-life (in general, how long it takes for the measured level to halve) at 25 μM with glutathione (GSH) fell in the range of 4.12 to 9.23 h.
Taken in the same sequence, the figures for `COc1cc(C(=O)O)ccc1N(Cc1cc(C2CC2)cc(C(C)(C)C)c1)C(=O)CN(Cc1ccc(F)cc1F)S(=O)(=O)c1c(F)c(F)c(F)c(F)c1F` [Compound 1076, 4-(N-(3-(tert-butyl)-5-cyclopropylbenzyl)-2-(N-(2,4-difluorobenzyl)-(2,3,4,5,6-pentafluorophenyl)sulfon-amido)acetamido)-3-methoxybenzoic acid] were 316 to 1000 nM and 2.37 to 4.12 h.
Taken in the same sequence, the figures for `COc1cc(C(=O)N(C)S(C)(=O)=O)ccc1N(Cc1cc(C2CC2)cc(C(C)(C)C)c1)C(=O)CN(Cc1cnccc1C(F)(F)F)S(=O)(=O)c1c(F)c(F)c(F)c(F)c1F` [Compound 1147, 4-(N-(3-(tert-butyl)-5-cyclopropylbenzyl)-2-(N-((4-(trifluoromethyl)pyridin-3-yl)methyl)-(2,3,4,5,6-pentafluoro-phenyl)sulfonamido)acetamido)-3-methoxy-N-methyl-N-(methylsulfonyl) benzamide] were 0.01 to 316 nM and 9.23 to 1670 h.
The matching figures for `CC(C)COc1cc(CN(C(=O)CN(Cc2ccc(Cl)cc2)S(=O)(=O)c2c(F)c(F)c(F)c(F)c2F)c2ccc(C(=O)O)c(O)c2)cc(OCC2CC2)c1` [Compound 1010, 4-(2-(N-(4-chlorobenzyl)-(2,3,4,5,6-pentafluorophenyl)sulfonamido)-N-(3-(cyclopropylmethoxy)-5-isobutoxybenzyl)acetamido)-2-hydroxybenzoic acid]: 3160 to 100000 nM and 2.37 to 4.12 h.
Take `COc1cc(C(=O)O)ccc1N(Cc1cc(C2CC2)cc(C(C)(C)C)c1)C(=O)CN(Cc1ncccc1F)S(=O)(=O)c1c(F)c(F)c(F)c(F)c1F` [Compound 1084, 4-(N-(3-(tert-butyl)-5-cyclopropylbenzyl)-2-(N-((3-fluoropyridin-2-yl)methyl)-(2,3,4,5,6-pentafluoro-phenyl)sulfonamido)acetamido)-3-methoxybenzoic acid]: the IC50 in the data set on MV4-11 cells was in the range of 316 to 1000 nM. Also, the half-life at 25 μM in the data set on glutathione (GSH) is 0.00167 to 2.37 h.
In the data set on MV4-11 cells, `O=C(O)c1ccc(N(Cc2cc(C3CC3)cc(C3CC3)c2)C(=O)CN(Cc2ccc(F)cc2Cl)S(=O)(=O)c2ccc(F)nc2)c(OC2CC2)c1` [Compound 1225, 4-(2-(N-(2-chloro-4-fluorobenzyl)-(6-fluoropyridine)-3-sulfonamido)-N-(3,5-dicyclopropylbenzyl)acetamido)-3-cyclopropoxybenzoic acid] registered an IC50 of 3160 to 100000 nM. This compound also returned a half-life at 25 μM in the data set with glutathione (GSH) of 9.23 to 1670 h.
On to `CC(C)(C)c1cc(CN(C(=O)CN(Cc2ccc(Cl)cc2)S(=O)(=O)c2c(F)c(F)c(F)c(F)c2F)c2ccc(C(=O)O)c(F)c2)cc(C2CC2)c1` [Compound 1033, 4-(N-(3-(tert-butyl)-5-cyclopropylbenzyl)-2-(N-(4-chlorobenzyl)-(2,3,4,5,6-pentafluorophenyl)sulfon-amido)acetamido)-2-fluorobenzoic acid], for which the IC50 in the data set on MV4-11 cells lay in the range of 1000 to 3160 nM. Besides, in the data set with glutathione (GSH), the half-life at 25 μM was 0.00167 to 2.37 h.
Taken in the same sequence, the figures for `C[C@@H](CC(=O)N(Cc1cc(C2CC2)cc(C(C)(C)C)c1)c1ccc(C(=O)O)c(O)c1)N(Cc1ccc(Cl)cc1)S(=O)(=O)c1c(F)c(F)c(F)c(F)c1F` [Compound 1040, (S)-4-(N-(3-(tert-butyl)-5-cyclopropylbenzyl)-3-(N-(4-chlorobenzyl)-(2,3,4,5,6-pentafluorophenyl)sulfon-amido)butanamido)-2-hydroxybenzoic acid] were 3160 to 100000 nM and 4.12 to 9.23 h.
The matching figures for `Cc1cc(C(=O)O)cc(C)c1N(Cc1cc(C2CC2)cc(C(C)(C)C)c1)C(=O)CN(Cc1ccccc1F)S(=O)(=O)c1c(F)c(F)c(F)c(F)c1F` [Compound 1072, 4-(N-(3-(tert-butyl)-5-cyclopropylbenzyl)-2-(N-(2-fluorobenzyl)-(2,3,4,5,6-pentafluoro-phenyl)sulfonamido)acetamido)-3,5-dimethylbenzoic acid]: 316 to 1000 nM and 4.12 to 9.23 h.
In the data set with MV4-11 cells, `O=C(O)c1ccc(N(Cc2ncccn2)C(=O)CN(Cc2ccccc2C(F)(F)F)S(=O)(=O)c2c(F)c(F)c(F)c(F)c2F)c(OC2CC2)c1` [Compound 1128, 3-cyclopropoxy-4-(2-(N-(2-(trifluoromethyl)benzyl)-(2,3,4,5,6-pentafluoro-phenyl)sulfonamido)-N-(pyrimidin-2-ylmethyl)acetamido) benzoic acid] displayed an IC50 of 1000 to 3160 nM. The compound further came in with a half-life at 25 μM in the data set with glutathione (GSH) of 0.00167 to 2.37 h.
Taken in the same sequence, the figures for `CN(C)c1cc(C(=O)O)ccc1N(Cc1cc(C2CC2)cc(C(C)(C)C)c1)C(=O)CN(Cc1ccccc1F)S(=O)(=O)c1c(F)c(F)c(F)c(F)c1F` [Compound 1105, 4-(N-(3-(tert-butyl)-5-cyclopropylbenzyl)-2-(N-(2-fluorobenzyl)-(2,3,4,5,6-pentafluoro-phenyl)sulfonamido)acetamido)-3-(dimethylamino)benzoic acid] were 0.01 to 316 nM and 4.12 to 9.23 h.
With `COc1cc(C(=O)O)ccc1N(Cc1cc(C2CC2)cc(C(C)(C)C)c1)C(=O)CN(Cc1ccc(F)cc1C#N)S(=O)(=O)c1c(F)c(F)c(F)c(F)c1F` [Compound 1180, 4-(N-(3-(tert-butyl)-5-cyclopropylbenzyl)-2-(N-(2-cyano-4-fluorobenzyl)-(2,3,4,5,6-pentafluorophenyl)sulfon-amido)acetamido)-3-methoxybenzoic acid], the IC50 in the data set on MV4-11 cells was in the range of 0.01 to 316 nM. For the same compound, the half-life at 25 μM in the data set on glutathione (GSH) lay within 2.37 to 4.12 h.
Taken in the same sequence, the figures for `CC(C)(C)c1cc(CN(C(=O)CN(Cc2ccccc2OC(F)(F)F)S(=O)(=O)c2c(F)c(F)c(F)c(F)c2F)c2ccc(C(=O)O)cc2OC2CC2)cc(C2CC2)c1` [Compound 1235, 4-(N-(3-(tert-butyl)-5-cyclopropylbenzyl)-2-(N-(2-(trifluoromethoxy)benzyl)-(2,3,4,5,6-pentafluoro-phenyl)sulfonamido)acetamido)-3-cyclopropoxybenzoic acid] were 316 to 1000 nM and 9.23 to 1670 h.
The matching figures for `CC(C)(C)c1cc(CN(C(=O)CN(Cc2ccc(C(F)(F)F)cc2)S(=O)(=O)c2c(F)c(F)c(F)c(F)c2F)c2ccc(C(=O)O)cc2OC2CC2)cc(C2CC2)c1` [Compound 1136, 4-(N-(3-(tert-butyl)-5-cyclopropylbenzyl)-2-(N-(4-(trifluoromethyl)benzyl)-(2,3,4,5,6-pentafluoro-phenyl)sulfonamido)acetamido)-3-cyclopropoxybenzoic acid]: 1000 to 3160 nM and 9.23 to 1670 h.
The matching figures for `O=C(O)c1ccc(N(Cc2cc(Br)cc(C3CC3)c2)C(=O)CN(Cc2ccc(Cl)cc2)S(=O)(=O)c2c(F)c(F)c(F)c(F)c2F)cc1O` [Compound 1054, 4-(N-(3-bromo-5-cyclopropylbenzyl)-2-(N-(4-chlorobenzyl)-(2,3,4,5,6-pentafluorophenyl)sulfon-amido)acetamido)-2-hydroxybenzoic acid]: 3160 to 100000 nM and 0.00167 to 2.37 h.
For `COc1cc(C(=O)O)ccc1N(Cc1cc(C2CC2)cc(C(C)(C)C)c1)C(=O)CN(Cc1c(Cl)cc(F)cc1Cl)S(=O)(=O)c1c(F)c(F)c(F)c(F)c1F` [Compound 1079, 4-(N-(3-(tert-butyl)-5-cyclopropylbenzyl)-2-(N-(2,6-dichloro-4-fluorobenzyl)-(2,3,4,5,6-pentafluorophenyl)sulfon-amido)acetamido)-3-methoxybenzoic acid], the IC50 with MV4-11 cells is 0.01 to 316 nM. In the data set on glutathione (GSH), this compound gave a half-life at 25 μM of 4.12 to 9.23 h.
The matching figures for `COc1cc(C(=O)O)ccc1N(Cc1cc(C2CC2)cc(C(C)(C)C)c1)C(=O)C[C@@H](C)N(Cc1ccccc1F)S(=O)(=O)c1c(F)c(F)c(F)c(F)c1F` [Compound 1073]: 316 to 1000 nM and 0.00167 to 2.37 h.
In the data set with MV4-11 cells, `COc1cc(N(Cc2cc(C3CC3)cc(C(C)(C)C)c2)C(=O)CN(Cc2ccc(Cl)cc2)S(=O)(=O)c2c(F)c(F)c(F)c(F)c2F)ccc1C(=O)O` [Compound 1017, 4-(N-(3-(tert-butyl)-5-cyclopropylbenzyl)-2-(N-(4-chlorobenzyl)-(2,3,4,5,6-pentafluorophenyl)sulfon-amido)acetamido)-2-methoxybenzoic acid] gave an IC50 of 316 to 1000 nM. The half-life at 25 μM in the data set on glutathione (GSH) fell in the range of 4.12 to 9.23 h.
